Test results as given in patent US9309222B2, “Phenyl linked quinolinyl modulators of RORγt” (Janssen Pharmaceutica NV, priority 2012, dated 2016).
Structures can show the parent of a compound that is named as a salt.

What was measured:
[1] = target: T1, human RORγt ligand binding domain (RORγt LBD) (Homo sapiens, UniProt P51449); assay: RORγt ThermoFluor assay (thermal shift, ligand binding affinity); settings: estimated from concentration response of thermal shift
T1 construct: His-tag (N); TurboTEV protease cleavage site (ENLYFQG) (N); made in house; host or cells: E. coli (pHIS1, modified pET vector)
T1 sequence (P51449 with tags, fused parts or gaps): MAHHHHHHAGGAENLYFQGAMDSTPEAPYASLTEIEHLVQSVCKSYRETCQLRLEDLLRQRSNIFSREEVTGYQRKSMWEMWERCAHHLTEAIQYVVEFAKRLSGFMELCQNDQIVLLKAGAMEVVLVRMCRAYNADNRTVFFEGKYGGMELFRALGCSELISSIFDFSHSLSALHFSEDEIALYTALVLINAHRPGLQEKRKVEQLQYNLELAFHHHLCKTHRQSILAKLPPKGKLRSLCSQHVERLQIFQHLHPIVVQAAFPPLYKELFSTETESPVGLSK
Procedure: This approach is applicable to a wide variety of systems, and rigorous in theoretical interpretation through quantitation of equilibrium binding constants (KD).
The shift in the melting point described as a ΔTm is proportional to the concentration and affinity of the ligand.
RORγt ThermoFluor® Assay Construct
Protein and compound solutions are dispensed into black 384-well polypropylene PCR microplates (Abgene) and overlayed with silicone oil (1 μL Fluka, type DC 200) to prevent evaporation.
Fluorescence was measured by continuous illumination with UV light (Hamamatsu LC6) supplied via fiber optic and filtered through a band-pass filter (380-400 nm; >6 OD cutoff). Fluorescence emission of the entire 384-well plate was detected by measuring light intensity using a CCD camera (Sensys, Roper Scientific) filtered to detect 500±25 nm, resulting in simultaneous and independent readings of all 384 wells. Images were collected at each temperature, and the sum of the pixel intensity in a given area of the assay plate was recorded versus temperature. Reference wells contained RORγt without compounds, and the assay conditions were as follows: • 0.065 mg/mL RORγt • 60 μM 1,8-ANS • 100 mM Hepes, pH 7.0 • 10 mM NaCl • 2.5 mM GSH • 0.002% Tween-20
Project compounds were arranged in a pre-dosed mother plate (Greiner Bio-one) wherein compounds are serially diluted in 100% DMSO by 1:2 from a high concentration of 10 mM over 12 columns within a series (column 12 is a reference well containing DMSO, no compound).
The compounds were robotically dispensed directly into assay plates (1×=[…]) using a Hummingbird capillary liquid handling instrument (Digilab). Following compound dispense, protein and dye in buffer was added to achieve the final assay volume of 3 μL, followed by 1 μL of silicone oil.

[2] = target: T2, human RORγt LBD (Homo sapiens, UniProt P51449); assay: RORγt reporter assay (GAL4-RORγt LBD luciferase in HEK293T cells); format: cell-based; settings: for IC50: 24 hours compound treatment; for inhibition at 6 µM: HEK-293T, read-out: RORγt reporter Assay, % inhibition @ 6 μM, HEK293T cells, 6 μM compound
T2 construct: expressed in transfected cells
T2 sequence (P51449 258-518): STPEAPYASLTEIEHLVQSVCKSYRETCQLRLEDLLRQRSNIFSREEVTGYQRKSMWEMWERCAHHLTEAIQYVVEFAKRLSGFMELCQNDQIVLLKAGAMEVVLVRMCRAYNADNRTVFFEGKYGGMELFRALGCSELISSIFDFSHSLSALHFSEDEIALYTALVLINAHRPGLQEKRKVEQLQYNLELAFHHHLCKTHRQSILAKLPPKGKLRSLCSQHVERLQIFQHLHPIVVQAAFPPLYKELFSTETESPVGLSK
From the text: A reporter assay was used to test functional activity of RORγt modulatory compounds on transcriptional activation driven by the RORγt LBD. Cells used in the assay were co-transfected with two constructs. The first construct, pBIND-RORγt LBD, contained the wild type human RORγt LBD fused to the DNA binding domain of the GAL4 protein. The second construct, pGL4.31 (Promega Cat no. C935A), contained multiple GAL4 responsive DNA elements upstream of firefly luciferase. […] The mutant construct was called pBIND-RORγt-AF2.
The pBIND vector contains the GAL4 DNA Binding Domain (GAL4 DBD) and the renilla luciferase gene under control of the SV40 promoter. Renilla luciferase expression serves as a control for transfection efficiency and cell viability.
The reporter assay was performed by transiently transfecting HEK293T cells with 5 ng of pBIND-RORγt LBD or pBIND-RORγt LBD-AF2 and 5 μg pGL4.31 (Promega Cat no. C935A) using Fugene 6 (Invitrogen Cat no. E2691) at a 1:6 ratio of DNA:Fugene 6 in a T-75 flask in which cells were at least 80% confluent. Twenty four hours after bulk transfection, cells were plated into 96-well plates at 50,000 cells/well in phenol-red free DMEM containing 5% Lipid Reduced FCS and Pen/Strep. Six hours after plating, cells were treated with compounds for 24 hours. Media was removed and cells were lysed with 50 μL 1× Glo Lysis Buffer (Promega). Dual Glo Luciferase Reagent (50 μL/well) was then added and firefly luciferase luminescence was read on an Envision after a ten minute incubation. Finally, Stop and Glo reagent (50 μL/well) was added and renilla luciferase luminescence was read on an Envision after a ten minute incubation. To calculate the effect of compounds on RORγt activity, the ratio of firefly to renilla luciferase was determined and plotted against compound concentration. Agonist compounds increase RORγt-driven luciferase expression, and antagonist or inverse agonist compounds decrease luciferase expression.

| Compound | Kd [1] [µM] | IC50 ([2]; HEK293T cells) [µM] | inhibition at 6 µM [2] [%] | RORγt reporter Assay, % inhibition @ 6 μM ([2]; HEK293T cells, 6 μM compound, 6 µM) [%] |
| --- | --- | --- | --- | --- |
| COc1nc2c(C)cc(C(O)(c3ccc(C(F)(F)F)nc3)c3cncn3C)cc2c(C#N)c1-c1cccc(F)c1 (single isomer, unassigned) [Example 179b, 3-(3-Fluorophenyl)-6-(hydroxy(1-methyl-1H-imidazol-5-yl)(6-(trifluoromethyl)pyridin-3-yl)methyl)-2-methoxy-8-methylquinoline-4-carbonitrile] | 6.6 | 1.3 | 98 | – |
| Cc1cc(C(O)(c2ccc(C(F)(F)F)nc2)c2cncn2C)cc2c(C#N)c(-c3ccc(F)cc3)c(C#N)nc12 (single isomer, unassigned) [Example 184b, 3-(4-Fluorophenyl)-6-(hydroxy(1-methyl-1H-imidazol-5-yl)(6-(trifluoromethyl)pyridin-3-yl)methyl)-8-methylquinoline-2,4-dicarbonitrile] | 2.5 | 3 | 99 | – |
| Cn1cncc1C(O)(c1ccc2nc(C(F)(F)F)c(-c3ccccc3)c(C(F)(F)F)c2c1)c1ccccn1 (single isomer, unassigned) [Example 185c, (1-Methyl-1H-imidazol-5-yl)(3-phenyl-2,4-bis(trifluoromethyl)quinolin-6-yl)(pyridin-2-yl)methanol] | 0.76 | 0.81 | – | 91 |
| Cc1nn(C)c(C)c1C(O)(c1ccccc1)c1ccc2nc(Cl)c(-c3ccccc3)c(Cl)c2c1 (stereo not drawn) [Example 4, (2,4-Dichloro-3-phenylquinolin-6-yl)(phenyl)(1,3,5-trimethyl-1H-pyrazol-4-yl)methanol] | 3.3 | 3.2 | 97 | – |
| CC(C)(C)OC(=O)N1CCCC(C(O)(c2cccnc2)c2ccc3nc(Cl)c(-c4ccccc4)c(Cl)c3c2)C1 (stereo not drawn) [Example 5, tert-Butyl 3-((2,4-Dichloro-3-phenylquinolin-6-yl)(hydroxy)(pyridin-3-yl)methyl)piperidine-1-carboxylate] | 21 | 0.38 | 79 | – |
| Cc1nn(C)c(C)c1C(O)(c1ccccc1)c1ccc2nc(Cl)c(-c3ccccc3Cl)c(Cl)c2c1 (stereo not drawn) [Example 7, (2,4-Dichloro-3-(2-chlorophenyl)quinolin-6-yl)(phenyl)(1,3,5-trimethyl-1H-pyrazol-4-yl)methanol] | 5.3 | 1.2 | 83 | – |
| COc1nc2ccc(C(O)(c3ccc(Cl)cc3)c3cncn3C)cc2cc1-c1ccccc1 (stereo not drawn) [Example 9] | 7.1 | 6.1 | 70 | – |
| CN(C)c1ccc(C(O)(c2ccc3nc(Cl)c(-c4ccccc4)c(Cl)c3c2)c2cncn2C)cn1 (stereo not drawn) [Example 11, (2,4-Dichloro-3-phenylquinolin-6-yl)[6-(dimethylamino)pyridin-3-yl](1-methyl-1H-imidazol-5-yl)methanol•TFA] | 1.1 | 4.2 | 75 | – |
| CN1CCN(c2nc3ccc(C(O)(c4ccncc4)c4cncn4C)cc3c(Cl)c2-c2ccccc2)CC1 (stereo not drawn) [Example 19, [4-Chloro-2-(4-methylpiperazin-1-yl)-3-phenylquinolin-6-yl](1-methyl-1H-imidazol-5-yl)pyridin-4-ylmethanol•TFA] | 9.1 | > 6 | 13 | – |
| COCOc1ccc(C(O)(c2cccnc2)c2ccc3nc(Cl)c(-c4ccccc4)c(Cl)c3c2)cc1 (stereo not drawn) [Example 23, (2,4-Dichloro-3-phenylquinolin-6-yl)[4-(methoxymethoxy)phenyl]pyridin-3-ylmethanol] | 0.23 | 0.8 | 89 | – |
| OC(c1ccncc1)(c1ccc2nc(Cl)c(-c3ccccc3)c(Cl)c2c1)c1ccccn1 (stereo not drawn) [Example 27, (2,4-Dichloro-3-phenylquinolin-6-yl)(pyridin-2-yl)pyridin-4-ylmethanol•TFA] | 8.3 | 4.2 | 75 | – |
| OC(c1cccnc1)(c1ccc2nc(Cl)c(-c3ccccc3)c(Cl)c2c1)c1ccccc1Cl (stereo not drawn) [Example 28, (2-Chlorophenyl)(2,4-dichloro-3-phenylquinolin-6-yl)pyridin-3-ylmethanol•TFA] | 0.23 | ~0.2 | 99 | – |
| Cn1cncc1C(N)(c1ccc2nc(Cl)c(-c3ccccc3)c(Cl)c2c1)c1ccccn1 (stereo not drawn) [Example 31, 1-(2,4-Dichloro-3-phenylquinolin-6-yl)-1-(1-methyl-1H-imidazol-5-yl)-1-pyridin-2-ylmethanamine•HCl] | 5.6 | 2.1 | 67 | – |
| CN(C)c1c(-c2ccccc2)c(Cl)nc2ccc(C(O)(c3ccc(Cl)cc3)c3cccnc3)cc12 (stereo not drawn) [Example 33, [2-Chloro-4-(dimethylamino)-3-phenylquinolin-6-yl](4-chlorophenyl)pyridin-3-ylmethanol•TFA] | 3.3 | 2 | 78 | – |
| CN(C)c1c(-c2ccccc2)c(Cl)nc2ccc(C(O)(c3ccc(F)cc3)c3cccnc3)cc12 (stereo not drawn) [Example 39, [2-Chloro-4-(dimethylamino)-3-phenylquinolin-6-yl](4-fluorophenyl)pyridin-3-ylmethanol•TFA] | 2.5 | 1.6 | 86 | – |
| CN(C)c1c(-c2ccccc2)c(Cl)nc2ccc(C(O)(c3cccnc3)c3cccc(Cl)c3)cc12 (stereo not drawn) [Example 42, [2-Chloro-4-(dimethylamino)-3-phenylquinolin-6-yl](3-chlorophenyl)pyridin-3-ylmethanol•TFA] | 1.4 | ~2 | 91 | – |
| CN(C)c1nc2ccc(C(O)(c3cccnc3)c3ccccn3)cc2c(Cl)c1-c1ccccc1 (stereo not drawn) [Example 43, [4-Chloro-2-(dimethylamino)-3-phenylquinolin-6-yl](pyridin-2-yl)pyridin-3-ylmethanol•TFA] | 1.6 | 1.1 | 99 | – |
| CN(C)c1c(-c2ccccc2)c(Cl)nc2ccc(C(O)(c3cccnc3)c3ccccc3Cl)cc12 (stereo not drawn) [Example 45, [2-Chloro-4-(dimethylamino)-3-phenylquinolin-6-yl](2-chlorophenyl)pyridin-3-ylmethanol•TFA] | 2.9 | 1.6 | 75 | – |
| Cc1cc(C(O)(c2ccc3nc(Cl)c(-c4ccccc4)c(Cl)c3c2)c2nccn2C)cc(Cl)n1 (stereo not drawn) [Example 46, (2-Chloro-6-methylpyridin-4-yl)(2,4-dichloro-3-phenylquinolin-6-yl)(1-methyl-1H-imidazol-2-yl)methanol] | 4 | 2 | 94 | – |
